Reference: patent US20110166149A1, “PTERIDINE DERIVATIVES FOR TREATING RESPIRATORY DISEASE” (TARGEGEN INC., priority 2008, published 2011)
Values joined by “and” are separate entries in the source; they are usually repeats but may differ in a detail not shown here. Equal entries are not always repeated. Where two headings read alike, the source gives them in different places.

Tests used:
[1] = Solubility of Compound A; assay type: physicochemical
[2] = Lung exposure in mice, nose-only chamber nebulization (Example 3); assay type: in vivo, Balb/c mice; details: 30 min nebulization, immediately after
Description: A series of compositions for pulmonary delivery were prepared by making a 20% suspension of compound A in a 5% tyloxapol solution in water. Particle size reduction was achieved using a colloid mill (magicLAB®, MK module, for 6 hours @ 12,000 rpm, while maintaining a temperature below 50° C.). Samples at 4% compound A were prepared by dilution with DI water. A 0.4% compound A suspension in 0.1% tyloxapol solution, was made by dilution with SWFI (6.02 g of the 20% suspension was QS to 30.23 g with SWFI).
0.4% compound A suspension in 0.1% tyloxapol solution: 2.07 g of a 4% compound A suspension was diluted to 20 g with DI water.
0.04% compound A suspension in 0.01% tyloxapol solution: 2.03 g of a 0.4% compound A suspension was diluted to 20 g with DI water. 0.004% compound A suspension in 0.001% tyloxapol solution: 2.05 g of a 0.04% compound A suspension was diluted to 20 g with DI water.
Compositions were delivered via a nose-only chamber (CH Technologies) to Balb/c mice by nebulizing for 30 minutes the composition with a PARI LC plus at 3 LPM with a 5 LPM dilutor (of dry air), tissues, plasma and BALF (3 mL used of PBS) collected after sacrificing immediately after nebulization, and were analyzed by HPLC-MS.

[3] = Stability / precipitation of compound A solutions at pH ~3 (Examples 5, 6); assay type: physicochemical
Description: 36 mg of compound A was dissolved with the aid of 0.5 N HCl (QS to 1 g) under mixing and heat. 200 μL of this solution was mixed using a sonicator bath, if necessary with a separately prepared solution containing 1.8 mg of a 0.02% tyloxapol/2% PVP 90F and 34 μL of a 2 N NaOH, to give a final concentration of ˜3.3 mg/mL of compound A at a pH of ˜3. […] 200 μL of the above solution was mixed using a sonicator bath, if necessary with a solution containing 1.8 mg of a 0.02% tyloxapol/2% PVP 90F and 10 μL of a 2 N NaOH, to give a final concentration of ˜5 mg/mL of compound A at a pH of ˜3. This solution will start precipitating ˜20 min.

[4] = Particle size of nebulized solution, 7 stage cascade impactor (Example 5); assay type: physicochemical; details: nebulized solution ~3.3 mg/mL, pH ~3, tyloxapol/PVP 90F
Description: 36 mg of compound A was dissolved with the aid of 0.5 N HCl (QS to 1 g) under mixing and heat. 200 μL of this solution was mixed using a sonicator bath, if necessary with a separately prepared solution containing 1.8 mg of a 0.02% tyloxapol/2% PVP 90F and 34 μL of a 2 N NaOH, to give a final concentration of ˜3.3 mg/mL of compound A at a pH of ˜3.

[5] = formulation conc. 0.004%, individual animals 3A-3E
[6] = formulation conc. 0.04%, individual animals 2A-2E
[7] = formulation conc. 0.40%, individual animals 1A-1E

dissolution in organic solvents ([1]; DMSO and selected aprotic solvents with high dielectric constants): readily dissolves
solubility ([1]; between pH of 3 and 9): negligible solubility
solubility ([1]; water, aqueous buffer, pH below 2 and above 10, read-out: water solubility): > 20 mg/mL
Compound A concentration BALF ([2]; formulation conc. 0.004%, Mean): 22.9 ± 34.0 ng/mL
Compound A concentration Lung ([2]; formulation conc. 0.004%, Mean): 0.12 ± 0.02 µg/g
Compound A concentration Plasma ([2]; formulation conc. 0.004%, Mean): <LLOQ
Compound A concentration Plasma [2, 5]: <LLOQ
Compound A concentration BALF ([2]; formulation conc. 0.04%, Mean): 71.6 ± 38.4 ng/mL
Compound A concentration Lung ([2]; formulation conc. 0.04%, Mean): 1.48 ± 0.49 µg/g
Compound A concentration Plasma [2, 6]: <LLOQ (4×) and 6.37 ng/mL
Compound A concentration BALF ([2]; formulation conc. 0.40%, Mean): 1870 ± 1902 ng/mL
Compound A concentration Lung ([2]; formulation conc. 0.40%, Mean): 6.7 ± 1.1 µg/g
Compound A concentration Plasma ([2]; formulation conc. 0.40%, Mean): 5.16 ± 2.39 ng/mL
solution stability ([3]; ~3.3 mg/mL, pH ~3, tyloxapol/PVP 90F (Example 5)): stable for more than an hour
time to start of precipitation ([3]; ~5 mg/mL, pH ~3, tyloxapol/PVP 90F (Example 6)): ~20 min
GSD [4]: 2.1
MMAD [4]: ~1 μm
SMILES: Nc1nc(N)c2nc(-c3cccc(O)c3)c(-c3cccc(O)c3)nc2n1 [Compound A, 6,7-bis(3-hydroxyphenyl)-pteridine-2,4-diamine]
Compound A concentration BALF [2, 5]: 83.6 ng/mL and 10.0 ng/mL and 7.84 ng/mL and 7.82 ng/mL and 4.99 ng/mL
Compound A concentration Lung [2, 5]: 0.14 μg/g and 0.12 μg/g and 0.10 μg/g (2×) and 0.13 μg/g
Compound A concentration BALF [2, 6]: 62.6 ng/mL and 93 ng/mL and 92.1 ng/mL and 102 ng/mL and 8.19 ng/mL
Compound A concentration Lung [2, 6]: 2.3 µg/g and 1.0 µg/g and 1.5 µg/g and 1.4 µg/g and 1.3 µg/g
Compound A concentration BALF [2, 7]: 1370 ng/mL and 5240 ng/mL and 1200 ng/mL and 804 ng/mL and 737 ng/mL
Compound A concentration Lung [2, 7]: 8.2 μg/g and 32.1(?) μg/g and 6.1 μg/g and 6.5 μg/g and 5.9 μg/g
Compound A concentration Plasma [2, 7]: 2.51 ng/mL and 3.98 ng/mL and 8.46 ng/mL and 6.73 ng/mL and 4.1 ng/mL
